Experimental data taken from patent publication US10562898B2, “Substituted benzenesulfonamides as inhibitors of alpha-4 beta-7 integrin activity” (EA PHARMA CO., LTD., priority 2016, dated 2020).

Target: T1, α4β7 integrin (Homo sapiens, UniProt P13612+P26010)
T1 construct: a cell line RPMI-8866, which is known to express α4β7 integrin; endogenous in cells; host or cells: RPMI-8866 (human B cell line)
T1 sequence (P13612 34-1032): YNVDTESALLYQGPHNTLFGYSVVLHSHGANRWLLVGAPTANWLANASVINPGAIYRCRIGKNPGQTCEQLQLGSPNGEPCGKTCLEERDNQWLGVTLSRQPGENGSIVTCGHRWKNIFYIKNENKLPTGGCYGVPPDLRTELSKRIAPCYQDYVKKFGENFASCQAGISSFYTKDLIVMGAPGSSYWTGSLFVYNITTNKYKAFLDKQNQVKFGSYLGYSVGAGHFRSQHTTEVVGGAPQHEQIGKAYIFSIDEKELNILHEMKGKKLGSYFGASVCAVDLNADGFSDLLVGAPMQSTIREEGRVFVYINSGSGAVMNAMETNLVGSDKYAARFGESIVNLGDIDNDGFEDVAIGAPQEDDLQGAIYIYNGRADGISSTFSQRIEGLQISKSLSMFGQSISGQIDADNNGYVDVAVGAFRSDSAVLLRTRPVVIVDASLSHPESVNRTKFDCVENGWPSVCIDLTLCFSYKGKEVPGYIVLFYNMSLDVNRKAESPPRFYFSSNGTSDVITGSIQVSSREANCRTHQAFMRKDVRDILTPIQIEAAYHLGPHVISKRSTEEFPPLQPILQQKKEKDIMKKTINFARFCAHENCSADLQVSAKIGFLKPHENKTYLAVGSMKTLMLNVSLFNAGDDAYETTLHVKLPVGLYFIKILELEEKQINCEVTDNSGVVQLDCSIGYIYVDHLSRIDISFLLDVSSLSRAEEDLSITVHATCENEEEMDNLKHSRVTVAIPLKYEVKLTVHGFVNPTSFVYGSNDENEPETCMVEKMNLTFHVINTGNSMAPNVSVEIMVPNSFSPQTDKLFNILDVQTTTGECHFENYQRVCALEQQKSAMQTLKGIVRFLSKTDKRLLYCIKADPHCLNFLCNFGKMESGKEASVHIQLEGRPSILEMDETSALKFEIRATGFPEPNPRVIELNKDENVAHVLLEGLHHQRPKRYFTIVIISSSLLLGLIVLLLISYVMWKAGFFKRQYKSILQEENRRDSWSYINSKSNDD
T1 sequence (P26010 20-798): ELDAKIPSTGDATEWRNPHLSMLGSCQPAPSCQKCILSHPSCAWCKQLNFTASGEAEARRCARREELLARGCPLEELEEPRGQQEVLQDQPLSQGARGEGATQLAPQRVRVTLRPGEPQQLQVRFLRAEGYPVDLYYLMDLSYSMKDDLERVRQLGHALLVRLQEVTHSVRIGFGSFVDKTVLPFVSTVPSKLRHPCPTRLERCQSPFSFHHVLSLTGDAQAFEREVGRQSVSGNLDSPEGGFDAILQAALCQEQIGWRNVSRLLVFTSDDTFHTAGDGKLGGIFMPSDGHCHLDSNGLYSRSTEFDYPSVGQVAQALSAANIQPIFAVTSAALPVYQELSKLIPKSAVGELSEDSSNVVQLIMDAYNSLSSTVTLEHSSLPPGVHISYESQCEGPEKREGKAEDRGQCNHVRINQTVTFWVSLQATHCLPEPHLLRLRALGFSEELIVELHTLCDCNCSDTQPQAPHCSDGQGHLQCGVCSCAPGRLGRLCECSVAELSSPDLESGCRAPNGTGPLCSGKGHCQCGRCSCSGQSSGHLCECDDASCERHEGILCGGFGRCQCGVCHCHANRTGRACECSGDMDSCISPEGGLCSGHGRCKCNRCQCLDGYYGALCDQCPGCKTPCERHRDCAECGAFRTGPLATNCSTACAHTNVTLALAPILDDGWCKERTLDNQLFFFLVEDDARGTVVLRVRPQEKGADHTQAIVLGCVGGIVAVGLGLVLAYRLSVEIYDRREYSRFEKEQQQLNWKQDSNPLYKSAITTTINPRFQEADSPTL
Experiment: MAdCAM-1/α4β7 integrin binding inhibitory activity evaluation test in presence of serum
Format: cell-based
Conditions: RPMI-8866 cells, recombinant mouse MAdCAM-1/Fc, 50% human serum; read-out: α4β7 Serum Added IC50
Protocol: (3) MAdCAM-1/α4β7 Integrin Binding Inhibitory Activity Evaluation Test in Presence of Serum (1)
Each test substance was measured in terms of an ability to inhibit the MAdCAM-1 binding of a human B cell line, namely, a cell line RPMI-8866, which is known to express α4β7 integrin.
A solution of recombinant mouse MAdCAM-1/Fc (R&D Systems, Inc.) (1 μg/mL) diluted with a buffer A (carbonate buffer, pH 9.6) was added in an amount of 50 μL/well to a 96-well microtiter plate, followed by incubation at 4° C. overnight. After the plate was washed with PBS once, 150 μL/well of Block Ace (Snow Brand Milk Products Co., Ltd.) was added, followed by incubation at room temperature for 2 hours. After removal, the plate was washed with PBS once.
Then, 100 μL of the RPMI-8866 cells (2×10^6 cells/mL) and 100 of the test substance at each of various concentrations diluted with a binding buffer (DMEM containing 40 mM HEPES, 0.2% BSA, and 4 mM MnCl2) were added to the plate coated with the MAdCAM-1/Fc (5×10^5 cells/well) such that 50% human serum was contained at the final concentration. Then, incubation was allowed to proceed at 30° C. for 15 to 60 minutes. After the cells were bound to the wells, the plate was washed with PBS to remove unbound cells. A buffer C (PBS containing 1.5% Triton X-100) was added in an amount 50 μL/well to the plate to lyse the bound RPMI-8866 cells. After 30 μL of a substrate buffer (Promega, CytoTox 96 Non-Radioactive Cytotoxicity Assay) was added to 30 μL of the cell lysate, a reaction was allowed to proceed at room temperature in the dark for 30 minutes. After 30 μL of a stop solution (Promega, CytoTox 96 Non-Radioactive Cytotoxicity Assay) was added to each, and then an absorbance at 490 nm was measured using a plate reader. The absorbance obtained here represents a detection result of an activity of lactate dehydrogenase (LDH) eluted in the supernatant of each well, that is, the absorbance is proportional to the number of RPMI-8866 cells bound to the MAdCAM-1 and thus remaining on the plate. The test was performed in duplicate. Provided that the absorbance of the well containing no test substance was 100%, a cell binding rate with the test substance at each of the various concentrations was figured out, and a concentration IC50 which brought about 50% binding inhibition was calculated.

Row | SMILES | IC50 [nM]
1 | Cc1c(C)n(C)c(=O)n(-c2ccc(C[C@H](NC(=O)c3cc(F)c(NS(=O)(=O)c4ccc(NC(=O)C(C)(C)C)cc4)cc3F)C(=O)O)cn2)c1=O [Compound A28] | 4.4
2 | Cn1c(=O)n(-c2ccc(C[C@H](NC(=O)c3cc(F)c(NS(=O)(=O)c4ccc(NC(=O)C5(c6ccccc6)CC5)cc4)cc3F)C(=O)O)cn2)c(=O)c2ccncc21 [Compound A29] | 54
3 | Cc1c(C)n(C)c(=O)n(-c2ccc(C[C@H](NC(=O)c3cc(F)c(NS(=O)(=O)c4ccc(NC(=O)C5(c6ccccc6)CC5)cc4)cc3F)C(=O)O)cc2)c1=O [Compound A30] | 43
4 | Cn1c(=O)n(-c2ccc(C[C@H](NC(=O)c3cc(F)c(NS(=O)(=O)c4ccc(NC(=O)C(C)(C)C)cn4)cc3F)C(=O)O)cn2)c(=O)c2ccncc21 [Compound A31] | 5
5 | Cc1c(C)n(C)c(=O)n(-c2ccc(C[C@H](NC(=O)c3cc(F)c(NS(=O)(=O)c4ccc(NC(=O)C(C)(C)C)cn4)cc3F)C(=O)O)cn2)c1=O [Compound A32] | 3
6 | Cn1c2c(c(=O)n(-c3ccc(C[C@H](NC(=O)c4cc(F)c(NS(=O)(=O)c5ccc(NC(=O)C(C)(C)C)cc5)cc4F)C(=O)O)cc3)c1=O)COCC2 [Compound A33] | 1.7
7 | Cc1c(C)n(C)c(=O)n(-c2ccc(C[C@H](NC(=O)c3cc(F)c(NS(=O)(=O)c4ccc(-n5ccc(C6CCOCC6)cc5=O)cc4)cc3F)C(=O)O)cc2)c1=O [Compound A34] | 24
8 | Cc1c(C)n(C)c(=O)n(-c2ccc(C[C@H](NC(=O)c3cc(F)c(NS(=O)(=O)c4ccc(N(C)C(=O)C(C)(C)C)cc4)cc3F)C(=O)O)cc2)c1=O [Compound A35] | 600
9 | COc1cc2c(=O)n(-c3ccc(C[C@H](NC(=O)c4cc(F)c(NS(=O)(=O)c5ccc(NC(=O)C(C)(C)C)cc5)cc4F)C(=O)O)cc3)c(=O)n(C)c2cn1 [Compound A36] | 18
10 | Cc1cn(C)c(=O)n(-c2ccc(C[C@H](NC(=O)c3cc(F)c(NS(=O)(=O)c4ccc(NC(=O)C(C)(C)C)cc4)cc3F)C(=O)O)cc2)c1=O [Compound A37] | 6.6
11 | CN1C(=O)N(c2ccc(S(=O)(=O)Nc3cc(F)c(C(=O)N[C@@H](Cc4ccc(-n5c(=O)c6ccncc6n(C)c5=O)nc4)C(=O)O)cc3F)cc2)C(=O)C1(C)C [Compound A38] | 20
12 | Cn1c2c(c(=O)n(-c3ccc(C[C@H](NC(=O)c4cc(F)c(NS(=O)(=O)c5ccc(NC(=O)C(C)(C)C)cc5)cc4F)C(=O)O)cn3)c1=O)CCOC2 [Compound A40] | 4.3
13 | CN1CCc2c(n(C)c(=O)n(-c3ccc(C[C@H](NC(=O)c4cc(F)c(NS(=O)(=O)c5ccc(NC(=O)C(C)(C)C)cc5)cc4F)C(=O)O)cc3)c2=O)C1 [Compound A41] | 1.9
14 | Cn1ccc(=O)n(-c2ccc(C[C@H](NC(=O)c3cc(F)c(NS(=O)(=O)c4ccc(NC(=O)C(C)(C)C)cc4)cc3F)C(=O)O)cc2)c1=O [Compound A42] | 9.8
15 | Cn1cnc2c1c(=O)n(-c1ccc(C[C@H](NC(=O)c3cc(F)c(NS(=O)(=O)c4ccc(NC(=O)C(C)(C)C)cc4)cc3F)C(=O)O)cc1)c(=O)n2C [Compound A43] | 5.8
16 | Cn1c2c(c(=O)n(-c3ccc(C[C@H](NC(=O)c4cc(F)c(NS(=O)(=O)c5ccc(NC(=O)C(C)(C)C)cc5)cc4F)C(=O)O)cn3)c1=O)COCC2 [Compound A44] | 2.6
17 | Cc1cc(=O)n(-c2ccc(C[C@H](NC(=O)c3cc(F)c(NS(=O)(=O)c4ccc(NC(=O)C(C)(C)C)cc4)cc3F)C(=O)O)cn2)c(=O)n1C [Compound A45] | 8.4
18 | Cc1cc(=O)n(-c2ccc(C[C@H](NC(=O)c3cc(F)c(NS(=O)(=O)c4ccc(NC(=O)C(C)(C)C)cc4)cc3F)C(=O)O)cc2)c(=O)n1C [Compound A46] | 7.6
19 | Cn1c2c(c(=O)n(-c3ccc(C[C@H](NC(=O)c4cc(F)c(NS(=O)(=O)c5ccc(NC(=O)C(C)(C)C)cc5)cc4F)C(=O)O)nc3)c1=O)CCCC2 [Compound A47] | 15
20 | Cc1c(C)n(C(C)C)c(=O)n(-c2ccc(C[C@H](NC(=O)c3cc(F)c(NS(=O)(=O)c4ccc(NC(=O)C(C)(C)C)cc4)cc3F)C(=O)O)cc2)c1=O [Compound A48] | 22
21 | Cc1c(C)n(C)c(=O)n(-c2ccc(C[C@H](NC(=O)c3cc(F)c(NS(=O)(=O)c4cccc(NC(=O)C(C)(C)C)c4)cc3F)C(=O)O)cc2)c1=O [Compound A49] | 45
22 | Cc1c(C)n(C)c(=O)n(-c2ccc(C[C@H](NC(=O)c3cc(F)c(NS(=O)(=O)c4cccc(NC(=O)C(C)(C)C)c4)cc3F)C(=O)O)cn2)c1=O [Compound A50] | 63
23 | Cc1c(CO)c(=O)n(-c2ccc(C[C@H](NC(=O)c3cc(F)c(NS(=O)(=O)c4ccc(NC(=O)C(C)(C)C)cc4)cc3F)C(=O)O)cc2)c(=O)n1C [Compound A51] | 13
24 | Cn1c2c(c(=O)n(-c3ccc(C[C@H](NC(=O)c4cc(F)c(NS(=O)(=O)c5ccc(NC(=O)C(C)(C)C)cc5)cc4F)C(=O)O)cn3)c1=O)CCCC2 [Compound A52] | 4.9
25 | Cn1ccc(=O)n(-c2ccc(C[C@H](NC(=O)c3cc(F)c(NS(=O)(=O)c4ccc(NC(=O)C(C)(C)C)cc4)cc3F)C(=O)O)cn2)c1=O [Compound A53] | 11
26 | Cc1cn(C)c(=O)n(-c2ccc(C[C@H](NC(=O)c3cc(F)c(NS(=O)(=O)c4ccc(NC(=O)C(C)(C)C)cc4)cc3F)C(=O)O)cn2)c1=O [Compound A54] | 8.4
27 | Cn1ccc(=O)n(-c2ccc(C[C@H](NC(=O)c3cc(F)c(NS(=O)(=O)c4ccc(NC(=O)C5(C(F)(F)F)CC5)cc4)cc3F)C(=O)O)cn2)c1=O [Compound A55] | 33
28 | Cc1cn(C)c(=O)n(-c2ccc(C[C@H](NC(=O)c3cc(F)c(NS(=O)(=O)c4ccc(NC(=O)C5(C(F)(F)F)CC5)cc4)cc3F)C(=O)O)cn2)c1=O [Compound A56] | 19
